Source: ChEMBL document CHEMBL1132706 (J Med Chem, 1999)

How the values were obtained:
[1] = system: CEM-SS; test: Compound was evaluated for the cytoprotection by XTT cytoprotection assay through the NCI AIDS Screen; assay type: functional, cell-based; conditions: Homo sapiens
[2] = Compound was evaluated for the relative inhibition of Viral infection in MAGI cells at concentration 0.1 mM, using assay 3; assay type: functional, Homo sapiens
[3] = Compound was evaluated for the relative inhibition of Viral infection in MAGI cells at concentration 100 mM, using assay 1; assay type: functional, Homo sapiens
[4] = Compound was evaluated for the relative inhibition of Viral infection in MAGI cells at concentration 10 mM, using assay 1; assay type: functional, Homo sapiens
[5] = Compound was evaluated for the relative inhibition of Viral infection in MAGI cells at concentration 10mM, using assay 2; assay type: functional, Homo sapiens
[6] = Compound was evaluated for the relative inhibition of Viral infection in MAGI cells at concentration 10 mM, using assay 3; assay type: functional, Homo sapiens
[7] = Compound was evaluated for the relative inhibition of Viral infection in MAGI cells at concentration 1 mM, using assay 1; assay type: functional, Homo sapiens
[8] = system: MT4; test: Concentration of compound required to protect 50% of MT-4 cells against retroviral cytopathic effects by HIV-1 ([…]); assay type: functional, cell-based; conditions: Homo sapiens
[9] = system: MT4; test: Concentration of compound required to protect 50% of MT-4 cells against retroviral cytopathic effects by HIV-2 (ROD); assay type: functional, cell-based; conditions: Homo sapiens
[10] = system: MT4; test: Concentration of compound required to reduce MT-4 cell viability by 50%; assay type: functional, cell-based; conditions: Homo sapiens
[11] = system: CEM-SS; test: Compound was evaluated for the cytoprotection of CEM-SS cells by XTT cytoprotection assay through the NCI AIDS Screen; assay type: functional, cell-based; conditions: Homo sapiens
[12] = molecular target: T1, Human immunodeficiency virus type 1 integrase (Human immunodeficiency virus 1, UniProt Q7ZJM1)
Description: Inhibition of HIV-1 integrase by radiolabeled oligonucleotide-based assay integration

[13] = molecular target: T1, Human immunodeficiency virus type 1 integrase; remark: listed apart in the source
Description: Compound was evaluated for the inhibitory concentration against HIV-1 integrase by radiolabeled oligonucleotide-based assay 3''-processing

[14] = Compound was evaluated for the relative Viral infection in MAGI cells at concentration 100 mM, using assay 2
[15] = system: CEM-SS; test: Compound was evaluated for the cytoprotection of CEM-SS cells by XTT cytoprotection assay through the NCI AIDS Screen (EC50); assay type: functional, cell-based; conditions: Homo sapiens
[16] = system: CEM-SS; test: Compound was evaluated for the cytoprotection of CEM-SS cells by XTT cytoprotection assay through the NCI AIDS Screen (IC50); assay type: functional, cell-based; conditions: Homo sapiens
[17] = system: CEM-SS; test: Compound was evaluated for the effect of Order of Addition on Cytoprotection against HIV-1RF at dilution 100, Pretreat only (100 uM); assay type: functional, Homo sapiens
[18] = system: CEM-SS; test: Compound was evaluated for the effect of Order of Addition on Cytoprotection against HIV-1RF at dilution 1000, Pretreat only (100 uM); assay type: functional, Homo sapiens
[19] = system: CEM-SS; test: Compound was evaluated for the effect of Order of Addition on Cytoprotection against HIV-1RF at dilution 333, Pretreat only (100 uM); assay type: functional, Homo sapiens

T1 sequence (Q7ZJM1 whole entry): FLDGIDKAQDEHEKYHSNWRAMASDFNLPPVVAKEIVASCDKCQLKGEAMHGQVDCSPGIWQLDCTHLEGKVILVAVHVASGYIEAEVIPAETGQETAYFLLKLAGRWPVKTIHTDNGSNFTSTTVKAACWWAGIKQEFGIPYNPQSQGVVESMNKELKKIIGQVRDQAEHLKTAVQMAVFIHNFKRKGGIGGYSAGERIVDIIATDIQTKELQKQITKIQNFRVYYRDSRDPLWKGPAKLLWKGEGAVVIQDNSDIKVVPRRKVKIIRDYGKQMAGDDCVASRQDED

Structure (SMILES)	EC50 [1]	relative infection [2]	relative infection [3]	relative infection [4]	relative infection [5]	relative infection [6]	relative infection [7]	EC50 [8]	EC50 [9]	IC50 [10]	IC50 [11]	IC50 [12]	IC50 [13]	relative infection [14]	EC50 [15]	IC50 [16]	Control [17]	Control [18]	Control [19]
CC(=O)Oc1ccc(/C=C/C(=O)O[C@@H](C(=O)O)[C@@H](OC(=O)/C=C/c2ccc(OC(C)=O)c(OC(C)=O)c2)C(=O)O)cc1OC(C)=O	16 µM	85%	4%	73%	50%	42%	48%	4.1 µM	10.1 µM	47.1 µM	50 µM	6.2 µM	9.8 µM	2%					
CC(=O)Oc1ccc(/C=C/C(=O)NCCOC(=O)/C=C/c2ccc(OC(C)=O)c(OC(C)=O)c2)cc1OC(C)=O												100 µM	> 333 µM		> 15.6 µM	15.6 µM			
NS(=O)(=O)c1ccc(NC(=O)c2ccccc2SSc2ccccc2C(=O)Nc2ccc(S(N)(=O)=O)cc2)cc1																	31%	6%	4%
